Laboratory results taken from ChEMBL document CHEMBL1139739, “Inhibition of Tpl2 kinase and TNFalpha production with quinoline-3-carbonitriles for the treatment of rheumatoid arthritis” (Bioorg Med Chem Lett, 2006).
Blank lines part the entries; values can stand above or below the compound they belong to. Activity calls are given as the source filed them. The rule behind the calls is not given here.

Key:
[1] = target: Mitogen-activated protein kinase kinase kinase 8 (Homo sapiens, UniProt P41279); experiment: Inhibition of Tpl2 kinase by ELISA
Blood = experiment: Inhibition of LPS-induced TNFalpha production in human whole blood by ELISA; type: functional
Monocyte [2] = experiment: Inhibition of LPS-induced TNFalpha production in human monocytes by ELISA; type: functional
[3] = target: MAP kinase-activated protein kinase 2 (Homo sapiens) (UniProt P49137); experiment: Inhibition of MK2
Monocyte [4] = experiment: Inhibition of MK2 phosphorylation in LPS-treated human monocytes; type: functional
[5] = target: Protein kinase C (PKC) (Homo sapiens) (UniProt O94806+P41743+P17252+P05129+Q05655+P05771+Q05513+Q02156+P24723+Q15139+Q04759); experiment: Inhibition of PKC; type: protein assay
[6] = target: Ribosomal protein S6 kinase beta-1 (Homo sapiens) (UniProt P23443); experiment: Inhibition of S6 kinase
Monocyte [7] = experiment: Inhibition of cJun phosphorylation in LPS-treated human monocytes; type: functional
Monocyte [8] = experiment: Inhibition of IkappaBalpha phosphorylation in LPS-treated human monocytes; type: functional
[9] = target: Proto-oncogene tyrosine-protein kinase Src (Homo sapiens) (UniProt P12931); experiment: Inhibition of Src kinase
Monocyte [10] = experiment: Inhibition of p38 kinase phosphorylation in LPS-treated human monocytes; type: functional
[11] = target: CaM kinase II (Homo sapiens) (UniProt Q13557+Q13555+Q13554+Q9UQM7); experiment: Inhibition of CAMK2; type: protein assay
Mus musculus [12] = experiment: Inhibition of LPS/D-gal-induced TNFalpha production in C57B1/6 mouse at 25 mg/kg, ip; type: functional; details: C57B1/6, ip, route intraperitoneal
[13] = target: Dual specificity mitogen-activated protein kinase kinase 1 (Homo sapiens) (UniProt Q02750); experiment: Inhibition of MEK
Mus musculus [14] = experiment: Inhibition of LPS/D-gal-induced TNFalpha production in C57B1/6 mouse at 50 mg/kg, ip; type: functional; details: C57B1/6, ip, route intraperitoneal

Sequence of Mitogen-activated protein kinase kinase kinase 8 (P41279 whole entry): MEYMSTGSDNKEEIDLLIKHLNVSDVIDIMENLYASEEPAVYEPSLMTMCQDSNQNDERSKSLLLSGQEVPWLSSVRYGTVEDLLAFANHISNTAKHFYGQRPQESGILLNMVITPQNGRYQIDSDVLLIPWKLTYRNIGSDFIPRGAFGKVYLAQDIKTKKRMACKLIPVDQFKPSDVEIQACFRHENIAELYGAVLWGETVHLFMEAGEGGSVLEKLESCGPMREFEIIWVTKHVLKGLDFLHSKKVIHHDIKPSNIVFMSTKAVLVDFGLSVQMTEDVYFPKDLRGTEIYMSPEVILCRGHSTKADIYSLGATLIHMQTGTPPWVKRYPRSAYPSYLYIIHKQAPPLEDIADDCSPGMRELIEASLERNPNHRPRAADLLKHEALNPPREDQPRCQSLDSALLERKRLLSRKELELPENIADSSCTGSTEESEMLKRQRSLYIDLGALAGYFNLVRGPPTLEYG
Sequence of Dual specificity mitogen-activated protein kinase kinase 1 (Homo sapiens) (Q02750 whole entry): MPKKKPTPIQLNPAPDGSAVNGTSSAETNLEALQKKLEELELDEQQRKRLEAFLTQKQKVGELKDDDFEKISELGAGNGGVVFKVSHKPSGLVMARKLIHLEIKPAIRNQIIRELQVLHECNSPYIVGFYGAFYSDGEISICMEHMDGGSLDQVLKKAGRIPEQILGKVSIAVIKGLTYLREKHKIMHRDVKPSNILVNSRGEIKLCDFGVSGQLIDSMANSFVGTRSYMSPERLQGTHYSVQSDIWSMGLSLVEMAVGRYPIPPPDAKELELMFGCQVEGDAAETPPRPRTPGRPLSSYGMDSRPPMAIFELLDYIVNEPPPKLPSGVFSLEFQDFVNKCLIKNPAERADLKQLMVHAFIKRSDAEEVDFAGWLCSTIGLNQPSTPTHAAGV
Sequence of Ribosomal protein S6 kinase beta-1 (Homo sapiens) (P23443 whole entry, looked up): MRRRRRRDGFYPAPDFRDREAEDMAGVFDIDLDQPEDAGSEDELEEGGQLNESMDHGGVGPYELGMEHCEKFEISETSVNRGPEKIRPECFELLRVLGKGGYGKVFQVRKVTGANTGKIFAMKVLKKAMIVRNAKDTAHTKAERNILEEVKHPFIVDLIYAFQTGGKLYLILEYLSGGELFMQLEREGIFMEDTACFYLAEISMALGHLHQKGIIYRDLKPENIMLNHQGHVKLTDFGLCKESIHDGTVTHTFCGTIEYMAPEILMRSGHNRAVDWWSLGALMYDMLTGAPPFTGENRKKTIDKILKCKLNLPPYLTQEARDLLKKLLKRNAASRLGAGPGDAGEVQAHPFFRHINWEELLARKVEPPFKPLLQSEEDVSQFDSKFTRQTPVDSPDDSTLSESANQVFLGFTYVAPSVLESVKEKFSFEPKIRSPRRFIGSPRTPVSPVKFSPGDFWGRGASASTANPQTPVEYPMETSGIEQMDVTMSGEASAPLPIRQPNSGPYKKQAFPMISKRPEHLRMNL
Sequence of MAP kinase-activated protein kinase 2 (Homo sapiens) (P49137 whole entry, looked up): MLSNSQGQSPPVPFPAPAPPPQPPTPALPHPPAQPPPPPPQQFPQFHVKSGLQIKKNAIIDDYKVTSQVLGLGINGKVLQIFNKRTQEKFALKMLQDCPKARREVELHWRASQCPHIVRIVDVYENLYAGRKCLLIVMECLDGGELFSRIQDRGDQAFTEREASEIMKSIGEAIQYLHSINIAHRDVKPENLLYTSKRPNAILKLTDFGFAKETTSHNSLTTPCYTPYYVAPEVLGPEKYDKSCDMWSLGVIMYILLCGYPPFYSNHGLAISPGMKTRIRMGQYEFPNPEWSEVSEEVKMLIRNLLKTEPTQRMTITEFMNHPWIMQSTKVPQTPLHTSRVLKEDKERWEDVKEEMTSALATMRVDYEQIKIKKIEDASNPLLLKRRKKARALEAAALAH
Sequence of Proto-oncogene tyrosine-protein kinase Src (Homo sapiens) (P12931 2-536 limits assumed): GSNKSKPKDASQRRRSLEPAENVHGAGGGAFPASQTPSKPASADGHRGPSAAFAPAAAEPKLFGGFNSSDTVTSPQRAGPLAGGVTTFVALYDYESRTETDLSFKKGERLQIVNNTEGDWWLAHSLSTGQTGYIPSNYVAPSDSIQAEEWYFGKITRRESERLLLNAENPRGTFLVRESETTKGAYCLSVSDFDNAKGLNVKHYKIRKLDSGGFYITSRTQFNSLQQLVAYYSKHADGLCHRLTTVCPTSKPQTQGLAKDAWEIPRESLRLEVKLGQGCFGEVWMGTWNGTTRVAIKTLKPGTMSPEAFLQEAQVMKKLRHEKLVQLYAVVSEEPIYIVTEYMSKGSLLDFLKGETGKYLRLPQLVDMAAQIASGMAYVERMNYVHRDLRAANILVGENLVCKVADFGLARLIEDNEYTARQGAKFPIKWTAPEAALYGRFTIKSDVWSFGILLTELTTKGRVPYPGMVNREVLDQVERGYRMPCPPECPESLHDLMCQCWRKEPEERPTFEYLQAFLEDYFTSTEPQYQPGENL

IC50 [1]: 7000 nM
Structure (SMILES): CCN1CCC[C@@H]1CNc1ccc2ncc(C#N)c(Nc3ccc(F)c(Cl)c3)c2c1

IC50 [1]: 210 nM
Structure (SMILES): N#Cc1cnc2ccc(NCc3ccccc3)cc2c1Nc1ccc(F)c(Cl)c1

Structure (SMILES): Cc1ncn(CCN2CCOCC2)c1CNc1ccc2ncc(C#N)c(Nc3ccc(F)c(Cl)c3)c2c1
inhibitory concentration (Blood): 13.2 µM
inhibitory concentration (Monocyte [2]): 0.7 µM

Activity [3]: inactive
Inhibition [5]: > 10 µM
Inhibition [6]: > 10 µM
Activity [9]: inactive
Activity [11]: inactive
IC50 [13]: 2400 nM
Structure (SMILES): N#Cc1cnc2ccc(NCc3c[nH]cn3)cc2c1Nc1ccc(F)c(Cl)c1
Inhibition (Monocyte [4]): >5 µM
inhibitory concentration (Blood): 3.3 µM
Inhibition (Monocyte [7]): 5 µM
Inhibition (Monocyte [8]): >5 µM
Inhibition (Monocyte [10]): 2.11 µM
inhibition in vivo at 25 mg/kg (Mus musculus [12]): 70%
inhibitory concentration (Monocyte [2]): 0.46 µM

IC50 [1]: 180 nM
Structure (SMILES): CCN1CCC[C@H]1CNc1ccc2ncc(C#N)c(Nc3ccc(F)c(Cl)c3)c2c1

IC50 [1]: > 40000 nM
Structure (SMILES): N#Cc1cnc2ccc(Nc3ccccc3)cc2c1Nc1ccc(F)c(Cl)c1

IC50 [1]: > 10000 nM
Structure (SMILES): N#Cc1cnc2ccc(NCCN3CCOCC3)cc2c1Sc1ccc(F)c(Cl)c1

IC50 [1]: > 10000 nM
Structure (SMILES): N#Cc1cnc2ccc(CCc3ccccc3)cc2c1Nc1ccc(F)c(Cl)c1

IC50 [1]: 90 nM
Structure (SMILES): N#Cc1cnc2ccc(NCc3ccccn3)cc2c1Nc1ccc(F)c(Cl)c1

Structure (SMILES): Cc1[nH]cnc1CNc1ccc2ncc(C#N)c(Nc3ccc(F)c(Cl)c3)c2c1
inhibitory concentration (Blood): 7.9 µM
IC50 [1]: 3 nM
inhibition in vivo at 50 mg/kg (Mus musculus [14]): 84%
inhibitory concentration (Monocyte [2]): 0.4 µM

IC50 [1]: 100 nM
Structure (SMILES): N#Cc1cccc(CNc2ccc3ncc(C#N)c(Nc4ccc(F)c(Cl)c4)c3c2)c1

IC50 [1]: 60 nM
Structure (SMILES): CC(Nc1ccc2ncc(C#N)c(Nc3ccc(F)c(Cl)c3)c2c1)c1ccccn1 (stereo not drawn)

IC50 [1]: 19000 nM
Structure (SMILES): Cc1nc2ccc(NCc3cnc[nH]3)cc2c(Nc2ccc(F)c(Cl)c2)c1C#N

IC50 [1]: > 40000 nM
Structure (SMILES): N#Cc1c(Nc2ccc(F)c(Cl)c2)c2cc(NCc3cnc[nH]3)ccc2[nH]c1=O

IC50 [1]: > 40000 nM
Structure (SMILES): CC(C)Oc1cc2ncc(C#N)c(Nc3ccc(F)c(Cl)c3)c2cc1NCc1cnc[nH]1

IC50 [1]: 140 nM
Structure (SMILES): N#Cc1cnc2cnc(NCc3ccccc3)cc2c1Nc1ccc(F)c(Cl)c1

IC50 [1]: > 40000 nM
Structure (SMILES): N#Cc1cnc2cc(OC(F)(F)F)c(NCc3cnc[nH]3)cc2c1Nc1ccc(F)c(Cl)c1

IC50 [1]: 2200 nM
Structure (SMILES): N#Cc1cnc2ccc(NCC3CCCO3)cc2c1Nc1ccc(F)c(Cl)c1 (stereo not drawn)

IC50 [1]: 640 nM
Structure (SMILES): CCc1ncc(CNc2ccc3ncc(C#N)c(Nc4ccc(F)c(Cl)c4)c3c2)[nH]1

IC50 [1]: 11500 nM
Structure (SMILES): N#Cc1cnc2ccc(NS(=O)(=O)c3ccccc3)cc2c1Nc1ccc(F)c(Cl)c1

Structure (SMILES): N#Cc1cnc2ccc(NCc3nccs3)cc2c1Nc1ccc(F)c(Cl)c1
inhibitory concentration (Blood): >20 µM
inhibitory concentration (Monocyte [2]): 0.6 µM

IC50 [1]: 11 nM
Structure (SMILES): N#Cc1cnc2ccc(NCc3cccc[n+]3[O-])cc2c1Nc1ccc(F)c(Cl)c1
inhibitory concentration (Blood): 7.8 µM
inhibition in vivo at 50 mg/kg (Mus musculus [14]): 54%
inhibitory concentration (Monocyte [2]): 1.7 µM

Structure (SMILES): Cc1c(CNc2ccc3ncc(C#N)c(Nc4ccc(F)c(Cl)c4)c3c2)ncn1C
inhibitory concentration (Blood): 15.8 µM
IC50 [1]: 3 nM
inhibitory concentration (Monocyte [2]): 0.4 µM

IC50 [1]: 30000 nM
Structure (SMILES): N#Cc1cnc2ccc(NCC3CCCN3)cc2c1Nc1ccc(F)c(Cl)c1 (stereo not drawn)

IC50 [1]: > 40000 nM
Structure (SMILES): N#Cc1cnc2ccc(NCCN3CCOCC3)cc2c1Oc1ccc(F)c(Cl)c1

IC50 [1]: 110 nM
Structure (SMILES): N#Cc1cnc2ccc(NCc3ccc(S(N)(=O)=O)cc3)cc2c1Nc1ccc(F)c(Cl)c1
